This is an account of results in patent publication US20050020542A1, “Method of modulating sodium ion absorption in epithelial cells” (priority 2001, published 2005).

“Also recorded” adds a separate entry of the source. Like-named read-outs stand apart in the source and are kept apart here.

The target in the experiment is T1, epithelial sodium channel (ENaC) (Homo sapiens, UniProt P37088+P51168+P51170).
T1 construct: Nasal Polyps were surgically obtained from a CF patient; endogenous in cells; host or cells: primary cystic fibrosis human nasal epithelial (CFHNE) cells from nasal polyps of a CF patient, grown at air-liquid interface
T1 sequence (P37088 1-669): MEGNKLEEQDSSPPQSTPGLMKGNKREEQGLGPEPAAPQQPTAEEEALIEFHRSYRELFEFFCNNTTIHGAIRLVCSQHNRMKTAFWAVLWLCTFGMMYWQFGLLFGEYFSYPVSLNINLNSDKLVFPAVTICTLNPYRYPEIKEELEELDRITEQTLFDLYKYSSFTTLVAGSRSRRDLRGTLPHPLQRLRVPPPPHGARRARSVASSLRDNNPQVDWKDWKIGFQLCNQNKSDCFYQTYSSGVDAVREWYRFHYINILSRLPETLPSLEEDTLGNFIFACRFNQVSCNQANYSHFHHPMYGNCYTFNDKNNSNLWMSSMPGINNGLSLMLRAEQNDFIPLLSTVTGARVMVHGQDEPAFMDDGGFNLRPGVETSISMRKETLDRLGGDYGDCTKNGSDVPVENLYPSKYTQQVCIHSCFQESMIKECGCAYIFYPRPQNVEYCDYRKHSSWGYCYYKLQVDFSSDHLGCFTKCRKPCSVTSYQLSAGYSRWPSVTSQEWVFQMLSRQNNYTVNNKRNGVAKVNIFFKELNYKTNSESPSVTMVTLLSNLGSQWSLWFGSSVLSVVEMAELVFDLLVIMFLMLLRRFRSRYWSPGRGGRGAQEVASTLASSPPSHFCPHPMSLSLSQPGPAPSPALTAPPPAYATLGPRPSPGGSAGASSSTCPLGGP
T1 sequence (P51168 1-640): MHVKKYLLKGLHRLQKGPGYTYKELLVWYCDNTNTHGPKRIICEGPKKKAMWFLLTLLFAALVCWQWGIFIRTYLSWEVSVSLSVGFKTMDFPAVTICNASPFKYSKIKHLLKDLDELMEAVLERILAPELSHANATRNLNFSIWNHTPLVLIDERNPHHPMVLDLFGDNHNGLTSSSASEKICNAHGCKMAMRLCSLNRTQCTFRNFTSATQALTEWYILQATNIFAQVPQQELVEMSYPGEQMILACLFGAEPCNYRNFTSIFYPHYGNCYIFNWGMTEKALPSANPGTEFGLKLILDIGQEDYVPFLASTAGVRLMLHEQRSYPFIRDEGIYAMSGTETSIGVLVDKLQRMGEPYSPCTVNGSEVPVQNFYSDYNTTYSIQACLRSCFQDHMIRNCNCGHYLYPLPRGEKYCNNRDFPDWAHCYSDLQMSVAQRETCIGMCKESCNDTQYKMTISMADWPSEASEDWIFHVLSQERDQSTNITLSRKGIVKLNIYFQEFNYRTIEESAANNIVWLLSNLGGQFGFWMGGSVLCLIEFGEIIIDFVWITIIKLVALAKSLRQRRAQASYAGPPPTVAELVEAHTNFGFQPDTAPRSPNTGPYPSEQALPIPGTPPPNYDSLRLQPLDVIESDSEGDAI
T1 sequence (P51170 1-649): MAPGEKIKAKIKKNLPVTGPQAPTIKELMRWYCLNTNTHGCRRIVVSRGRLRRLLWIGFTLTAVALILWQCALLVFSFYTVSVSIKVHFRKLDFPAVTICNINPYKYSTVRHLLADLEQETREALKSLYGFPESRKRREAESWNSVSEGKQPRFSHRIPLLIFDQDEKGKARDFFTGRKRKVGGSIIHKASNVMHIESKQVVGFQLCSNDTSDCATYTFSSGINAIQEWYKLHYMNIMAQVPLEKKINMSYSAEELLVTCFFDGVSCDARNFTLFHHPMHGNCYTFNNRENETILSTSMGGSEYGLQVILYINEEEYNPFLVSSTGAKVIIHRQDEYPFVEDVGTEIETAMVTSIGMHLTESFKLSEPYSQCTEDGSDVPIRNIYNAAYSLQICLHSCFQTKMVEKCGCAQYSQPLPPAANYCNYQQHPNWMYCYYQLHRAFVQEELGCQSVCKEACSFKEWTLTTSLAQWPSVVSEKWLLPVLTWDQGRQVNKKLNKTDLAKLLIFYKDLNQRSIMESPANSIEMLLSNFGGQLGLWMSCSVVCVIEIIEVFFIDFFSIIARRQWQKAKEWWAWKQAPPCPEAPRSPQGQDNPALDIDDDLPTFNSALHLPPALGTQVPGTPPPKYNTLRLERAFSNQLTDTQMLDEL
The experiment in a line: Cystic fibrosis human nasal epithelial (CFHNE) cell Ussing chamber assay, short-circuit current (Isc). Format: cell-based. The protocol: Sodium uptake inhibiting and enhancing inositol polyphosphate compounds are determined by the cystic fibrosis human nasal epithelial (CFHNE) cell assay, as described in detail in Examples 1 and 2, i.e., by mounting monolayers of human CF nasal epithelial cells in Ussing chambers, and then monitoring short-circuit current (Isc) and resistance after contact with a test inositol polyphosphate compound.
Elevated basal Isc measured in monolayer cultures in Ussing Chambers is a prominent characteristic of cultures of CF human nasal airway epithelia that distinguishes it from normal tissue. Although basal Isc is largely driven by sodium channel activity (ENaC) it has been closely associated with both CFTR and Ca^2+ activated Cl^− channels. (Devor and Pilewski, 1999; Inglis et al., 1999; Mall et al., 1999; Ramminger et al., 1999; Wang and Chan, 2000).
CF Human Nasal Epithelial (CFHNE) Cell Isolation and Proliferation: Nasal Polyps were surgically obtained from a CF patient at Children's Hospital (Seattle, Wash.), transported, on ice in a sterile container containing a 1:1 mixture of Dulbecco's modification of minimum essential medium Eagle and Ham's F-12 nutrient medium (DMEM/F-12)(Irvine Scientific, Santa Ana, Calif.) supplemented with 100 U/ml penicillin, 0.1 mg/ml streptomycin, 10 mM HEPES, and 2 mM L-glutamine. The tissue samples were aseptically removed from the transport medium and washed (repeated 5×) by suspending in 40 ml of Joklik's modification of minimum essential medium Eagle (JMEM) at 4° C., and centrifuging at 500 RPM. The supernatant was aspirated and discarded. The tissue was then transferred to JMEM containing 200 U/ml penicillin, 0.2 mg/ml streptomycin, 0.1 mg/ml gentamycin sulfate (Clonetics, San Diego, Calif.), and 0.1 μg/ml amphotericin-B (Clonetics), and 0.1% Protease (Sigma), washed an additional 2×, suspended in 15 ml in a 10 cm tissue culture dish, and incubated at 4° C. for 24 hours. The tissue samples were then gently triturated, the connective tissue aseptically removed, and the remaining cell suspension centrifuged at 1000 RPM for 5 min. The supernatant was aspirated and the pellet was resuspended in 10 ml JMEM with 0.025% trypsin-EDTA and allowed to incubate for 5 min. After 5 min., 10% Fetal Bovine Serum (FBS) was added to deactivate the trypsin, and the cell suspension was centrifuged at 1000 RPM. The supernatant was aspirated and the cell pellet was resuspended in a proliferation media consisting of Keratinocyte-Serurm Free Medium (KSFM)(Gibco-BRL, Grand Island, N.Y.) containing 5 ng/ml EGF (Gibco), 50 μg/ml BPE (Gibco), 100 U/ml penicillin, 0.1 mg/ml streptomycin, and 2 mM L-glutamine. The cell suspension was transferred to 2, 10 cm tissue culture dishes coated with 1 μg/cm^2 Vitrogen (Becton-Dickinson, Bedford, Mass.), incubated at 37° C. in a humidified atmosphere of 5% CO2 and 95% air. The cells were allowed to grow for 6 days (70-80% confluence) with the media being replaced with fresh media every other day. The cells were then trypsinized using 0.025% trypsin-EDTA for 5 min. The cell suspension was collected, the trypsin deactivated with 10% FBS, and centrifuged at 1000 rpm for 5 min. The cells were then counted using a hemocytometer. There was a typical yield of 3×10^6 cells per dish. The supernatant was aspirated and the cells were resuspended in KSFM and plated on 1 μg/cm^2 Vitrogen at a density of 5×10^3 cells/cm^2.
CFHNE Cell Ussing Chamber Preparation: The CFHNE cells were prepared for Ussing Chamber studies using Snapwell permeable supports (0.4 μm pore size) (Corning Costar, Cambridge, Mass.) coated with 1 μg/cm^2 Vitrogen. Cells were plated at 10^5 cells/cm^2 in KSFM. […]

For orientation: EC50 means the concentration giving half of the maximal effect. Take `CCCCCCCCOC1C(OC(=O)CCC)C(OP(=O)(OCOC(=O)CC)OCOC(=O)CC)C(OP(=O)(OCOC(=O)CC)OCOC(=O)CC)C(OP(=O)(OCOC(=O)CC)OCOC(=O)CC)C1OP(=O)(OCOC(=O)CC)OCOC(=O)CC` (stereo not drawn) [INO-E2, 2-O-butyryl-1-O-octyl-myo-inositol 3,4,5,6-tetrakisphosphate octakis (propionoxymethyl) ester]: the “acute effect on Isc” value (2.5 μM, acute) is given as “acute inhibitory effect on Isc”. In addition, the “persistence of acute Isc effect after 24 hrs” value (2.5 μM, single addition, after 24 hrs) is “dissipated”. Besides, the “inhibition of Isc 48 hours after exposure (reversibility)” value (5 μM for 2 hours, tested 48 hours later) was “negligible inhibition of Isc”. Further, the “effect of repeated exposure on basal Isc” value (1-2.5 μM repeatedly over 96 hours (every 24 hrs for 4 days), FIG. 3) was “corrective changes in basal Isc; also recorded: cumulative beneficial effect; also recorded: reverses the pathologically elevated basal Isc”. The “decrease in potency after 24 hr preincubation versus acute addition” value (24 hr preincubation EC50 vs acute EC50) is listed as 50-80%. Moreover, the “inhibition of spontaneous Isc in Cl- free buffer” value (Cl- free buffer, FIG. 1A) is “not reduced”. Also, the EC50 (acute addition, data not shown, read-out: EC50 on Isc following acute addition of compound) is 1 to 2 µM and the EC50 (applied apically 2 hrs, washed, tested 24 hrs later, CFHNE monolayers, read-out: EC50 of prolonged effect on basal amiloride-inhibitable Isc) lay within 5 to 10 µM. Further, where the note is “acute addition, reduced chloride and chloride free buffers, FIG. 1A”, the “acute effect on spontaneous amiloride-inhibitable Isc” value was “inhibits spontaneous amiloride-inhibitable Isc in a dose-dependent fashion”.
